System: Caco-2
Experiment: Cytotoxicity against human Caco2 cells assessed as cell viability after 48 hrs by MTT assay
Assay type: functional, cell-based
Details: Caco-2, 48 h

C[C@H]1[C@@H](CC(=O)N(CCNC(=O)[C@@H](N)CCCCN)CC(=O)NCCN(CC(=O)OC(C)(C)C)C(=O)C[C@H]2O[C@@H]3O[C@@]4(C)CC[C@H]5[C@H](C)CC[C@@H]([C@H]2C)[C@@]35OO4)O[C@@H]2O[C@@]3(C)CC[C@H]4[C@H](C)CC[C@@H]1[C@@]24OO3
IC50: 3.58 µM

C[C@H]1[C@@H](CC(=O)N(CCNC(=O)OCC2c3ccccc3-c3ccccc32)CC(=O)OC(C)(C)C)O[C@@H]2O[C@@]3(C)CC[C@H]4[C@H](C)CC[C@@H]1[C@@]24OO3
IC50: 5.36 µM

C[C@H]1[C@@H](CC(=O)N(CCNC(=O)[C@H](CCCCNC(=O)OC(C)(C)C)NC(=O)OCC2c3ccccc3-c3ccccc32)CC(=O)OC(C)(C)C)O[C@@H]2O[C@@]3(C)CC[C@H]4[C@H](C)CC[C@@H]1[C@@]24OO3
IC50: 12 µM

C[C@H]1[C@@H](CC(=O)N(CCNC(=O)[C@H](CCCCN)NC(=O)OCC2c3ccccc3-c3ccccc32)CC(=O)OC(C)(C)C)O[C@@H]2O[C@@]3(C)CC[C@H]4[C@H](C)CC[C@@H]1[C@@]24OO3
IC50: 4.38 µM

C[C@H]1[C@@H](CC(=O)N(CCNC(=O)[C@@H](N)CCCCN)CC(=O)OC(C)(C)C)O[C@@H]2O[C@@]3(C)CC[C@H]4[C@H](C)CC[C@@H]1[C@@]24OO3
IC50: 14.7 µM

C[C@H]1[C@@H](CC(=O)N(CCNC(=O)OCC2c3ccccc3-c3ccccc32)CC(=O)NCCN(CC(=O)OC(C)(C)C)C(=O)C[C@H]2O[C@@H]3O[C@@]4(C)CC[C@H]5[C@H](C)CC[C@@H]([C@H]2C)[C@@]35OO4)O[C@@H]2O[C@@]3(C)CC[C@H]4[C@H](C)CC[C@@H]1[C@@]24OO3
IC50: 2.87 µM

C[C@H]1[C@@H](CC(=O)N(CCNC(=O)[C@H](CCCCNC(=O)OC(C)(C)C)NC(=O)OCC2c3ccccc3-c3ccccc32)CC(=O)NCCN(CC(=O)OC(C)(C)C)C(=O)C[C@H]2O[C@@H]3O[C@@]4(C)CC[C@H]5[C@H](C)CC[C@@H]([C@H]2C)[C@@]35OO4)O[C@@H]2O[C@@]3(C)CC[C@H]4[C@H](C)CC[C@@H]1[C@@]24OO3
IC50: 8.03 µM

C[C@H]1[C@@H](CC(=O)N(CCNC(=O)[C@H](CCCCN)NC(=O)OCC2c3ccccc3-c3ccccc32)CC(=O)NCCN(CC(=O)OC(C)(C)C)C(=O)C[C@H]2O[C@@H]3O[C@@]4(C)CC[C@H]5[C@H](C)CC[C@@H]([C@H]2C)[C@@]35OO4)O[C@@H]2O[C@@]3(C)CC[C@H]4[C@H](C)CC[C@@H]1[C@@]24OO3
IC50: 2.04 µM

C[C@H]1[C@@H](O)O[C@@H]2O[C@@]3(C)CC[C@H]4[C@H](C)CC[C@@H]1[C@@]24OO3 [ARTENIMOL]
IC50: 26.9 µM
